Tests used:
Experiment in all cases: Bitter taste receptor screening, calcium mobilization in HEK293T cells
Assay type in all cases: cell-based
[1] = molecular target: T1, TAS2R8 (Homo sapiens, UniProt Q9NYW2)
T1 construct: first 45 amino acids of rat somatostatin type 3 receptor (SSTR3) (N); expressed in transfected cells; host or cells: HEK293T stably expressing chimeric Gα16gust44, transiently co-transfected with the pcDNA4-TAS2R vector and pCMV-GCaMP5G
T1 sequence (Q9NYW2 1-309): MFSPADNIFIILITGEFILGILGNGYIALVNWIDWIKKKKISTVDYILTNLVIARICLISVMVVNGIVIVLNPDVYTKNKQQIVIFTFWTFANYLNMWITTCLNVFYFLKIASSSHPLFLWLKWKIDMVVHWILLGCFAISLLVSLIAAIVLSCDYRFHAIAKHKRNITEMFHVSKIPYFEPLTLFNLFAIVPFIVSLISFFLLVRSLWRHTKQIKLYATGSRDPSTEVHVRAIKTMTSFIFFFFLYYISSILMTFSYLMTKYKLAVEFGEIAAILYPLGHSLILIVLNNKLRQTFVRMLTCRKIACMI
Protocol: (§1) Bitter taste receptor cDNA were cloned into the pcDNA4 mammalian expression vector (Invitrogen) using full coding receptor sequences reported on UniProt database. The synthetic constructs were codon optimized (Genewiz) and combine the first 45 amino acids of rat somatostatin type 3 receptor at the amino terminus to improve plasma membrane targeting of the receptors in the heterologous system. The FLAG epitope was added to the carboxy terminus without interfering with receptor functionality and can be used for immunocytochemistry. Calcium-mobilization assays were performed using human embryonic kidney cells (HEK293T) stably transfected with chimeric Gα16gust44 protein[78]. Cells were seeded in black, poly-D-lysine coated 96-well plates at a density of 35,000 cells/100 µL in high glucose DMEM supplemented with 10% dialysed fetal bovine serum and 1% penicillin/streptomycin. Twenty-four hours later, the cells were transiently co-transfected using Lipofectamine 2000 (Life Technologies) with one of the TAS2R synthetic optimized vectors or empty expression plasmid, as a negative control, and the pCMV-GCaMP5G construct (Addgene #31788) coding for a genetically encoded calcium indicator[79],[80]. Twenty-four hours after transfection, cells were washed twice with C1 buffer (130 mM NaCl, 5 mM KCl, 10 mM HEPES, 2 mM CaCl2, 5 mM sodium pyruvate, pH7.4). 3-oxo-C12:2-HSL was solved in DMSO and further diluted in C1 buffer. Next, the cells were placed in a fluorometric imaging plate reader (Flexstation® 3, Molecular Devices) and stimulated with automatic injection of increasing concentrations of AHLs. Calcium responses leading to increase in fluorescence were monitored at 510 nm after excitation at 488 nm. Experiments were performed in duplicates and repeated at least four times. The recorded calcium levels of each wells receiving the same stimulus were averaged, response of mock-transfected cells were subtracted from receptor-transfected cells and net signals were normalized to background fluorescence (F/F0, F0 fluorescence light before stimulus application). The resulting dose–response curves of the averaged fluorescent signal amplitudes against the logarithm of the agonist concentration were fitted using Sigma Plot software. For data analysis, the four-parameter logistic equation [f(x) = min + (max − min)/(1 + (x/EC50)nH)] was used to calculate the half-maximal effective concentrations (EC50 values).

[2] = molecular target: T2, TAS2R13 (Homo sapiens, UniProt Q9NYV9)
T2 construct: first 45 amino acids of rat somatostatin type 3 receptor (SSTR3) (N); expressed in transfected cells; host or cells: HEK293T stably expressing chimeric Gα16gust44, transiently co-transfected with the pcDNA4-TAS2R vector and pCMV-GCaMP5G
T2 sequence (Q9NYV9 1-303): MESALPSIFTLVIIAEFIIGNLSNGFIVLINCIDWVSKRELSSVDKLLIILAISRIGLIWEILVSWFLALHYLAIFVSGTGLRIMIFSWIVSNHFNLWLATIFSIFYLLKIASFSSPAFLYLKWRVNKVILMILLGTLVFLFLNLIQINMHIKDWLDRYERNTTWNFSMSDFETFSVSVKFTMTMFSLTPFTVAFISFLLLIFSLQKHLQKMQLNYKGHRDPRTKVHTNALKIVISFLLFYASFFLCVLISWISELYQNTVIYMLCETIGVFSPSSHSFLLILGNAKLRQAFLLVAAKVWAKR
Protocol: as §1

[3] = molecular target: T3, TAS2R10 (Homo sapiens, UniProt Q9NYW0)
T3 construct: first 45 amino acids of rat somatostatin type 3 receptor (SSTR3) (N); expressed in transfected cells; host or cells: HEK293T stably expressing chimeric Gα16gust44, transiently co-transfected with the pcDNA4-TAS2R vector and pCMV-GCaMP5G
T3 sequence (Q9NYW0 1-307): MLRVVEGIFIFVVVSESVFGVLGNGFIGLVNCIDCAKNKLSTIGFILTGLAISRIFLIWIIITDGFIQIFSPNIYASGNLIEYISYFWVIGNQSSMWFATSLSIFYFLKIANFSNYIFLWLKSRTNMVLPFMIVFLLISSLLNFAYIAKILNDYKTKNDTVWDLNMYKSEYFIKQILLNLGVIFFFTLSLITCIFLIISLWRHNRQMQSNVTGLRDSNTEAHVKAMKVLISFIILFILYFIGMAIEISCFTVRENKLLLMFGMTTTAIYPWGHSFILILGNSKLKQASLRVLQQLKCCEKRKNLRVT
Protocol: as §1

[4] = molecular target: T4, TAS2R38 (Homo sapiens, UniProt P59533)
T4 construct: first 45 amino acids of rat somatostatin type 3 receptor (SSTR3) (N); expressed in transfected cells; host or cells: HEK293T stably expressing chimeric Gα16gust44, transiently co-transfected with the pcDNA4-TAS2R vector and pCMV-GCaMP5G
T4 sequence (P59533 1-333): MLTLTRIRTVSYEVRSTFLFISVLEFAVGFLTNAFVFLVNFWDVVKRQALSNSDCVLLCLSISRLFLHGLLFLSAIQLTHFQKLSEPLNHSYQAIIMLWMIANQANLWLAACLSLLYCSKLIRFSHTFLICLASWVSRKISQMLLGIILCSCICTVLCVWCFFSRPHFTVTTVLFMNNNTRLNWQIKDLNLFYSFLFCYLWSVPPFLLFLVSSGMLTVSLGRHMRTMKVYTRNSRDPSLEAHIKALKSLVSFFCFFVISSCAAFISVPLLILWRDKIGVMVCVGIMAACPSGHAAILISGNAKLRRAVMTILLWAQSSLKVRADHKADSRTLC
Protocol: as §1

[5] = molecular target: T5, TAS2R14 (Homo sapiens, UniProt Q9NYV8); details: calcium response F/F0
T5 construct: first 45 amino acids of rat somatostatin type 3 receptor (SSTR3) (N); expressed in transfected cells; host or cells: HEK293T stably expressing chimeric Gα16gust44, transiently co-transfected with the pcDNA4-TAS2R vector and pCMV-GCaMP5G
T5 sequence (Q9NYV8 1-317): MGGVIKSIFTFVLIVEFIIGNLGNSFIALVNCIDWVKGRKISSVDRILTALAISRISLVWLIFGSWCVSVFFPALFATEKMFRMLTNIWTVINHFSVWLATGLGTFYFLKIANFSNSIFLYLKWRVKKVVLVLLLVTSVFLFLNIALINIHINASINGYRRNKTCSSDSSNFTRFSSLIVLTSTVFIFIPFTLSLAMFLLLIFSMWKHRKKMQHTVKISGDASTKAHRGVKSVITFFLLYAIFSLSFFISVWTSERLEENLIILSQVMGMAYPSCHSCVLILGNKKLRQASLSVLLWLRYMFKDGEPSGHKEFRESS
Protocol: as §1

**Q.** Which results are given for 3-oxo-C12:2-HSL?
**A.** maximum amplitude ([1]; calcium response F/F0): around 0.45; EC50 ([1]; calcium response, 0–1000 µM): 333 ± 27 µM; maximum amplitude ([2]; calcium response F/F0): 0.59 ± 0.03; EC50 ([2]; calcium response, 0–1000 µM): 884 ± 41 µM; maximum amplitude ([3]; calcium response F/F0): 0.13 ± 0.03; EC50 ([3]; calcium response, 0–1000 µM): 438 ± 120 µM; maximum amplitude ([4]; calcium response F/F0): 0.05 ± 0.01; EC50 ([4]; calcium response, 0–1000 µM): 476 ± 125 µM; maximum amplitude [5]: around 0.45

Reference: publication PMC9177545, “3-oxo-C12:2-HSL, quorum sensing molecule from human intestinal microbiota, inhibits pro-inflammatory pathways in immune cells via bitter taste receptors” (Scientific Reports, 2022)
